Publication PMC9150124, “Design of a Potent, Selective, and Brain-Penetrant Inhibitor of Wnt-Deactivating Enzyme Notum by Optimization of a Crystallographic Fragment Hit” (Journal of Medicinal Chemistry, 2022)
Read-outs that look alike come from different tables or passages of the source.

Assays:
[1] = molecular target: kinase named in conditions (Homo sapiens, UniProt O75914); assay: SelectScreen kinase profiling, SSBK ZLyte SP Technology; assay type: biochemical; details: PAK3, 10 μM
Method: (§1) Kinase selectivity screening was performed by Thermo Fisher Scientific (Paisley, U.K.) in their SelectScreen Biochemical Kinase Profiling Service. Assay information and data are presented in the Supporting Information.
(§2) Kinase selectivity screening was performed by ThermoFisher Scientific (Paisley, U.K.) in their SelectScreenTM
(§3) Biochemical Kinase Profiling service .

[2] = molecular target: kinase named in conditions (Homo sapiens, UniProt P00533); assay: as above; assay type: biochemical; details: EGFR (ErbB1), 10 μM
Method: as §1, §2, §3

[3] = molecular target: kinase named in conditions (Homo sapiens, UniProt P10721, V559D); assay: as above; assay type: biochemical; details: KIT V559D, 10 μM
Method: as §1, §2, §3

[4] = molecular target: kinase named in conditions (Homo sapiens, UniProt P10721, V559D/V654A); assay: as above; assay type: biochemical; details: KIT V559D V654A, 10 μM
Method: as §1, §2, §3

[5] = molecular target: kinase named in conditions (Homo sapiens, UniProt P12931); assay: as above; assay type: biochemical; details: SRC, 10 μM
Method: as §1, §2, §3

[6] = molecular target: kinase named in conditions (Homo sapiens, UniProt P15735); assay: as above; assay type: biochemical; details: PHKG2, 10 μM
Method: as §1, §2, §3

[7] = molecular target: kinase named in conditions (Homo sapiens, UniProt P16234, T674I); assay: as above; assay type: biochemical; details: PDGFRA T674I, 10 μM
Sequence of kinase named in conditions (Homo sapiens, UniProt P16234, T674I) (P16234 24-1089 T674I): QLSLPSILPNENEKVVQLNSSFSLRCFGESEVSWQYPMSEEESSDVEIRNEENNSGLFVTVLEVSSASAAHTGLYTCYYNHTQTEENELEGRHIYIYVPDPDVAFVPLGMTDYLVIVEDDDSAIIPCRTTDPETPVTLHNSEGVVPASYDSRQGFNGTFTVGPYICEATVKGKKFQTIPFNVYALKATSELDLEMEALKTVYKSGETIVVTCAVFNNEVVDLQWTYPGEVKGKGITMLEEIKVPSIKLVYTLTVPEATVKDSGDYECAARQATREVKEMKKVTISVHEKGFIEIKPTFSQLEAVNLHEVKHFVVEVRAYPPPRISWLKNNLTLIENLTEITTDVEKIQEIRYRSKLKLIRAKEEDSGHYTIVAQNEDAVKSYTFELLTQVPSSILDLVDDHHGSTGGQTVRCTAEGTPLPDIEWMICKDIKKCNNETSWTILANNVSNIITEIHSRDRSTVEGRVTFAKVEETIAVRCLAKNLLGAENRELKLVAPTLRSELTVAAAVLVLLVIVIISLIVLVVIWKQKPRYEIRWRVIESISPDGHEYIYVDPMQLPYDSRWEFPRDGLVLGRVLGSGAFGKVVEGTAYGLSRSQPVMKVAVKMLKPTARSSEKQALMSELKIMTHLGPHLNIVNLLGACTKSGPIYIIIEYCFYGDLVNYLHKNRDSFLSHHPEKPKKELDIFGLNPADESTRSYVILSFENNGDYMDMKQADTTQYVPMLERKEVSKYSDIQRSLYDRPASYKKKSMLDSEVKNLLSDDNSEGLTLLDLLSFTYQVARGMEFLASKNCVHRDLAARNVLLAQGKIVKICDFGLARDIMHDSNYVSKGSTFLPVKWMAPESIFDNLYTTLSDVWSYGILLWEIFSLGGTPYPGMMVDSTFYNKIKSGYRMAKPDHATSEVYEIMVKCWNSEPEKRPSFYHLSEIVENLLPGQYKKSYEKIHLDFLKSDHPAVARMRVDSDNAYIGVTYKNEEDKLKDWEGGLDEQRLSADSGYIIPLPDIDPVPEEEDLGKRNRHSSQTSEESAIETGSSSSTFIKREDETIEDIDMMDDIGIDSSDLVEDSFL
Method: as §1, §2, §3

[8] = molecular target: kinase named in conditions (Homo sapiens, UniProt P16234, V561D); assay: as above; assay type: biochemical; details: PDGFRA V561D, 10 μM
Sequence of kinase named in conditions (Homo sapiens, UniProt P16234, V561D) (P16234 24-1089 V561D): as the sequence (P16234 24-1089 T674I) above, with V538D, I651T counted along it
Method: as §1, §2, §3

[9] = molecular target: kinase named in conditions (Homo sapiens, UniProt P27448); assay: as above; assay type: biochemical; details: MARK3, 10 μM
Sequence of kinase named in conditions (Homo sapiens, UniProt P27448) (P27448 whole entry): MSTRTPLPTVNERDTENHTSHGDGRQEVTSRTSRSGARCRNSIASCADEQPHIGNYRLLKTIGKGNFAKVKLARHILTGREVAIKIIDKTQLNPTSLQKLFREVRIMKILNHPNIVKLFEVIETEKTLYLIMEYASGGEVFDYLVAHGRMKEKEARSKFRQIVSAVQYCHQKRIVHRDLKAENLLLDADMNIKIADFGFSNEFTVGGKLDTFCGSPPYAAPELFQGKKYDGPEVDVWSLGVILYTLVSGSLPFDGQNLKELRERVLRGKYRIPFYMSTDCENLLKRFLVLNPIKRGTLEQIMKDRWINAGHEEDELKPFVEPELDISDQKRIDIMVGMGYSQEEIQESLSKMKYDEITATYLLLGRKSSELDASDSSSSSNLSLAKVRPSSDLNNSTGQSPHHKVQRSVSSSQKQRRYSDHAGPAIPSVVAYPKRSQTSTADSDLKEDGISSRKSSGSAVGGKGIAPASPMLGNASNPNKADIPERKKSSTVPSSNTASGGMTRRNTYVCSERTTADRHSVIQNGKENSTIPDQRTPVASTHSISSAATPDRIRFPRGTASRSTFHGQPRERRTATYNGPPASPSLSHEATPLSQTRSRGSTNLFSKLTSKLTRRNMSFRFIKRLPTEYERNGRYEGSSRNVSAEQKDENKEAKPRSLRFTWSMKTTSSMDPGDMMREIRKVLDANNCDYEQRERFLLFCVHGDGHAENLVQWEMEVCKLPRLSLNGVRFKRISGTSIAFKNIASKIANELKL
Method: as §1, §2, §3

[10] = molecular target: kinase named in conditions (Homo sapiens, UniProt P29323); assay: as above; assay type: biochemical; details: EPHB2, 10 μM
Method: as §1, §2, §3

[11] = molecular target: kinase named in conditions (Homo sapiens, UniProt P35916); assay: as above; assay type: biochemical; details: FLT4 (VEGFR3), 10 μM
Sequence of kinase named in conditions (Homo sapiens, UniProt P35916) (P35916 25-1363): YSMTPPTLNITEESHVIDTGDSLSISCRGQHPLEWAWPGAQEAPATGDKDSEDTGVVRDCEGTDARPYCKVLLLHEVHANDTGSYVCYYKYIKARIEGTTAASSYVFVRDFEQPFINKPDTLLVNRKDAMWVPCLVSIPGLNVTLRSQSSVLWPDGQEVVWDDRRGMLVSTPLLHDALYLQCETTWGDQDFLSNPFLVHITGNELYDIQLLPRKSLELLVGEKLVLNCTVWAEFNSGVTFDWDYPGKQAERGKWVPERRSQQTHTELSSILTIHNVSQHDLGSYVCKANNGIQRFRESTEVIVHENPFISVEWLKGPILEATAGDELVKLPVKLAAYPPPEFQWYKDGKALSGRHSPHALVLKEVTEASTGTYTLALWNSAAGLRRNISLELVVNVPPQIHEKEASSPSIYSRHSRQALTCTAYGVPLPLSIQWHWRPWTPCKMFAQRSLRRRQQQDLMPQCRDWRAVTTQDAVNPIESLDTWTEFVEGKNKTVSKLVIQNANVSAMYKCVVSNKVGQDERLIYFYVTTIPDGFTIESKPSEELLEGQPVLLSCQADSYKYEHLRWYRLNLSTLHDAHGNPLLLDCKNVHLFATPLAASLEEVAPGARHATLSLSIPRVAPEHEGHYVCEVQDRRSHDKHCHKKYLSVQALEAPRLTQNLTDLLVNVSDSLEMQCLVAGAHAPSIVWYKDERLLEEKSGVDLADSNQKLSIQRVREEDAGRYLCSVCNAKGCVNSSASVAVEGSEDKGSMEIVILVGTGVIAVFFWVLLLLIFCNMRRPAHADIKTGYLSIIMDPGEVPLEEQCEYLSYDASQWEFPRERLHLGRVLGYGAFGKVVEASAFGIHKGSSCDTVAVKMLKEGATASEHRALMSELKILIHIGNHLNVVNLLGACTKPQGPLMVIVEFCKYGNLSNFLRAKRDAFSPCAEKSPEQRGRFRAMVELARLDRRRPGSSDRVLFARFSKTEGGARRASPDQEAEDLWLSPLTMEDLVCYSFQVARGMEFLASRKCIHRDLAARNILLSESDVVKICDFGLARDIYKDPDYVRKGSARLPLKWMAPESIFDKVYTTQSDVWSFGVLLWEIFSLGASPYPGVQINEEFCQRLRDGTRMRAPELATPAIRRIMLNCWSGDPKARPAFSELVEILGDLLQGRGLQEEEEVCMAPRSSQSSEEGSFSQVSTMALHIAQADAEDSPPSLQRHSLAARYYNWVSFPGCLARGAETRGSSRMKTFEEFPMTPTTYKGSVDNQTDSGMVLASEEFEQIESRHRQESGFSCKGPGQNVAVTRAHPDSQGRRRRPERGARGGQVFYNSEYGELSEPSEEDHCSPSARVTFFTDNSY
Method: as §1, §2, §3

[12] = molecular target: kinase named in conditions (Homo sapiens, UniProt P42345); assay: as above; assay type: biochemical; details: FRAP1 (mTOR), 10 μM
Method: as §1, §2, §3

[13] = molecular target: kinase named in conditions (Homo sapiens, UniProt P52564); assay: as above; assay type: biochemical; details: MAP2K6 (MKK6), 10 μM
Method: as §1, §2, §3

[14] = molecular target: kinase named in conditions (Homo sapiens, UniProt P54753); assay: as above; assay type: biochemical; details: EPHB3, 10 μM
Method: as §1, §2, §3

[15] = molecular target: kinase named in conditions (Homo sapiens, UniProt P78362); assay: as above; assay type: biochemical; details: SRPK2, 10 μM
Sequence of kinase named in conditions (Homo sapiens, UniProt P78362) (P78362 whole entry): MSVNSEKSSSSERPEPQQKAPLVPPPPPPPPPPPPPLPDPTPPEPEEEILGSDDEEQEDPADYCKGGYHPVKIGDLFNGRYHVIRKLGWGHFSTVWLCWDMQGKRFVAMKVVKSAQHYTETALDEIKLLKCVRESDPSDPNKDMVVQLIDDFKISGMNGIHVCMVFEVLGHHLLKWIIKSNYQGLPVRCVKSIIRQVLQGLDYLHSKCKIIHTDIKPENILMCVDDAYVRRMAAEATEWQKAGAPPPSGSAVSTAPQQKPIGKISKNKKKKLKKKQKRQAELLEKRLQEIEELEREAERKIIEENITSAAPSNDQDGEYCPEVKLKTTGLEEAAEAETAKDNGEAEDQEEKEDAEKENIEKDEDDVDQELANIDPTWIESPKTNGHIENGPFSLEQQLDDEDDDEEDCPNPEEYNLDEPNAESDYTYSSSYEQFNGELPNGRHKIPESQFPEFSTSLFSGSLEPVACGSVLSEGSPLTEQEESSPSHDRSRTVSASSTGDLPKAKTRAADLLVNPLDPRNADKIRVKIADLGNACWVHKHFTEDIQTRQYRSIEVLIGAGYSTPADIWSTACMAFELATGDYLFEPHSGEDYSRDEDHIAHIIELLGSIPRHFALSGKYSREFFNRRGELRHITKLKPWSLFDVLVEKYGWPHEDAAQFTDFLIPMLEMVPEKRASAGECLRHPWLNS
Method: as §1, §2, §3

[16] = molecular target: kinase named in conditions (Homo sapiens, UniProt Q13470); assay: as above; assay type: biochemical; details: TNK1, 10 μM
Method: as §1, §2, §3

[17] = molecular target: kinase named in conditions (Homo sapiens, UniProt Q15303); assay: as above; assay type: biochemical; details: ERBB4 (HER4), 10 μM
Method: as §1, §2, §3

[18] = molecular target: kinase named in conditions (Homo sapiens, UniProt Q8TD19); assay: as above; assay type: biochemical; details: NEK9, 10 μM
Method: as §1, §2, §3

[19] = molecular target: kinase named in conditions (Homo sapiens, UniProt Q96PY6); assay: as above; assay type: biochemical; details: NEK1, 10 μM
Method: as §1, §2, §3

[20] = molecular target: kinase named in conditions (Homo sapiens, UniProt Q9BXA7); assay: as above; assay type: biochemical; details: STK22D (TSSK1), 10 μM
Sequence of kinase named in conditions (Homo sapiens, UniProt Q9BXA7) (Q9BXA7 whole entry): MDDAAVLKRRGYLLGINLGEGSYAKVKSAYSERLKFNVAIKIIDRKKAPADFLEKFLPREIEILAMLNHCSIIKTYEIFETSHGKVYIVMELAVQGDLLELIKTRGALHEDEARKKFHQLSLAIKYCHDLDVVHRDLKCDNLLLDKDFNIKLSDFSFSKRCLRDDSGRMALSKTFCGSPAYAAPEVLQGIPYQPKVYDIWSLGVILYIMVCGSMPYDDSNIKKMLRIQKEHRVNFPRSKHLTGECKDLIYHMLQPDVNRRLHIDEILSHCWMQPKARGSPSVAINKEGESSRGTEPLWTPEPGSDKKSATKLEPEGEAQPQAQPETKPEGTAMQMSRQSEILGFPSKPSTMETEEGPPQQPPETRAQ
Method: as §1, §2, §3

[21] = molecular target: kinase named in conditions (Homo sapiens, UniProt Q9H3Y6); assay: as above; assay type: biochemical; details: SRMS (Srm), 10 μM
Method: as §1, §2, §3

[22] = molecular target: kinase named in conditions (Homo sapiens, UniProt Q9H792); assay: as above; assay type: biochemical; details: PEAK1, 10 μM
Method: as §1, §2, §3

[23] = molecular target: kinase named in conditions (Homo sapiens, UniProt Q9UM73); assay: as above; assay type: biochemical; details: ALK, 10 μM
Method: as §1, §2, §3

[24] = molecular target: kinase named in conditions (Homo sapiens, UniProt P00519, H396P); assay: SelectScreen kinase profiling, SSBK LanthaScreen Binding SP Technology; details: ABL1 H396P, 10 μM
Method: as §1, §2, §3
(§4) Illustration reproduced courtesy of Cell Signaling technology, Inc.
(§5) (B) Illustration of phylogenetic tree of kinases screened.

[25] = molecular target: kinase named in conditions (Homo sapiens, UniProt P36894); assay: as above; details: BMPR1A (ALK3), 10 μM
Method: as §1, §2, §3, §4, §5

[26] = molecular target: kinase named in conditions (Homo sapiens, UniProt P37023); assay: as above; details: ACVRL1 (ALK1), 10 μM
Method: as §1, §2, §3, §4, §5

[27] = molecular target: kinase named in conditions (Homo sapiens, UniProt Q86SG6); assay: as above; details: NEK8, 10 μM
Method: as §1, §2, §3, §4, §5

[28] = molecular target: kinase named in conditions (Homo sapiens, UniProt Q9H2G2); assay: as above; details: SLK, 10 μM
Method: as §1, §2, §3, §4, §5

[29] = tested on: kinase named in conditions; assay: as above
Method: as §1, §2, §3, §4, §5

[30] = Stability in mouse liver microsomes; assay type: in vitro ADME; details: for half-life: mouse, liver microsomes, read-out: MLM Stability t1/2
[31] = Plasma protein binding, rapid equilibrium dialysis; details: for fraction unbound at 4 h, 2 µM: plasma
Method: G. Plasma protein binding (PPB):
Method: rapid equilibrium dialysis.
Test System Mouse Plasma (K2EDTA)
Test compound concentration 10 µM (mouse) or 2 µM (rat)

CYP2C9 = CYP2C9 (Homo sapiens, UniProt P11712); assay: CYP450 inhibition in HLM
Sequence of CYP2C9 (P11712 whole entry): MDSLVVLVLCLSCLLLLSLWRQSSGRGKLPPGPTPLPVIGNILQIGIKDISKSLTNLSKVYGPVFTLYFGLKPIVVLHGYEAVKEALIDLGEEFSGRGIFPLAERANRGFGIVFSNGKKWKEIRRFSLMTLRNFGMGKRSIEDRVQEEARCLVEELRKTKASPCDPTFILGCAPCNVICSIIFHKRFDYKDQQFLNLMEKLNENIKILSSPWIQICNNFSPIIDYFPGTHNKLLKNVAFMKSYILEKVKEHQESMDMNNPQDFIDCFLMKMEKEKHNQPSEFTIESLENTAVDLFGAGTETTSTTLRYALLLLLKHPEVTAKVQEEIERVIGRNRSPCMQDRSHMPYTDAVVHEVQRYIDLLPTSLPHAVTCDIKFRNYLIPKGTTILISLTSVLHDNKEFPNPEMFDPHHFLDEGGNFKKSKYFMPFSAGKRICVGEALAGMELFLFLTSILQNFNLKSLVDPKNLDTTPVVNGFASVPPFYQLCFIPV

FC(F)(F)c1c(Cl)ccc(-n2ccnn2)c1Cl [8l, 1-(2,4-Dichloro-3-(trifluoromethyl)phenyl)-1H-1,2,3-triazole]
inhibition at 10 µM [1]: 8%
inhibition at 10 µM [2]: 1%
inhibition at 10 µM [3]: -3%
inhibition at 10 µM [4]: 1%
inhibition at 10 µM [5]: 6%
inhibition at 10 µM [6]: 8%
inhibition at 10 µM [7]: 4%
inhibition at 10 µM [8]: -3%
inhibition at 10 µM [9]: 3%
inhibition at 10 µM [10]: 2%
inhibition at 10 µM [11]: 0%
inhibition at 10 µM [12]: 4%
inhibition at 10 µM [13]: 3%
inhibition at 10 µM [14]: -8%
inhibition at 10 µM [15]: 7%
inhibition at 10 µM [16]: -3%
inhibition at 10 µM [17]: 1%
inhibition at 10 µM [18]: -3%
inhibition at 10 µM [19]: 1%
inhibition at 10 µM [20]: -5%
inhibition at 10 µM [21]: 10%
inhibition at 10 µM [22]: 20%
inhibition at 10 µM [23]: 5%
inhibition at 10 µM [24]: 7%
inhibition at 10 µM [25]: 6%
inhibition at 10 µM [26]: 12%
inhibition at 10 µM [27]: 2%
inhibition at 10 µM [28]: 4%
% Inhibition mean ([29]; ALK T1151_L1152insT, 10 μM): 3%
% Inhibition mean ([29]; EGFR (ErbB1) d746-750, 10 μM): 2%
% Inhibition mean ([29]; EGFR (ErbB1) d747-749 A750P, 10 μM): -6%
% Inhibition mean ([29]; FLT3 ITD, 10 μM): -15%
MLM Cli [30]: 3.2 μL/min/mg protein
Liver microsome stability Cli, MLM ([30]; additional study (Table 5)): 11.7 μL/min/mg protein
half-life ([30]; Table S4): 2 h
half-life ([30]; Table S8): 1.97 h
fraction unbound at 4 h, 2 µM ([31]; SD, rat, pH 7.4): 0.0552
fraction unbound at 4 h, 2 µM ([31]; SD, rat, pH 7.4, Plasma protein binding (PPB), % bound, rat plasma): 0.0552
recovery at 4 h, 2 µM ([31]; SD, rat, rat plasma, pH 7.4): 99.3%
Plasma protein binding (PPB), % bound ([31]; mouse plasma): 95.8%
recovery at 5 h, 10 µM ([31]; mouse, mouse plasma (K2EDTA), pH 7.4): 89.9%
Plasma protein binding (PPB), % bound ([31]; rat plasma): 94.5%
IC50 (CYP2C9): 19.6 µM
IC50 (CYP2C9; read-out: CYP inhibition IC50, 2C9, HLM): 15 µM
IC50 (CYP2C9; read-out: IC50 CYP2C9/Diclofenac, (+)NADPH pre-incubation): 15.4 µM
